{"source": "the NIST ThermoML archive (doi:10.1016/j.jct.2016.08.022)", "experiment": "Molar enthalpy of transition or fusion", "conditions": "Crystal 2; Adiabatic calorimetry", "note": "Numbers after ± are expanded uncertainties."}
{"compound": "CCC(=O)O[C@]1(C(=O)COC(C)=O)CC[C@H]2[C@@H]3C[C@H](C)C4=CC(=O)C=C[C@]4(C)[C@H]3[C@@H](O)C[C@@]21C", "note": "[Methylprednisolone aceponate]", "values": [{"measurement": "Molar enthalpy of transition or fusion", "result": "0.0526 ± 0.00143", "unit": "kcal/mol"}]}
